Bridge positions count the residues as written; N and C are the ends. Ends that are not written are not given here.
Experiments:
[1] = system: B. globigii; assay: Microtiter plate absorbance/fluorescence analysis of interaction with bacterial cells (B. globigii); type: cell-based
Description: (§1) C1TPP and C1TPP-modified antimicrobial peptides were evaluated in a microtiter plate format using a Tecan XSafire monochromator-based microplate reader. Absorbance measurements were collected between 380 and 800 nm at 2 nm resolution. Fluorescence measurements were collected at 2 nm resolution for emission between 550 and 800 nm with excitation at 415 nm and for excitation between 385 and 619 nm with emission at 730 nm.
(§2) The microtiter plate format described above was utilized for analysis of interactions between the porphyrin-AMP constructs and bacterial cells, specifically, E. coli and B. globigii. The bacterial cells utilized were collected at mid-log phase growth and rinsed with water to remove growth media. They were then resuspended in water at approximately 3.5×10^7 cfu/mL. Analyses looked at changes in fluorescence and absorbance for fixed cell concentrations with varying tracer concentrations as well as for fixed tracer concentrations with varying cell concentrations. FIGS. 3A and 3B present data for the interaction between C1TPP and the two cell types, with absorbance (A) and fluorescence (B) spectra for C1TPP in water (black, 10% DMSO) and in the presence of E. coli (dashes) and B. globigii (dots) at 1.8×10^6 cfu/mL.

[2] = type: physicochemical; conditions: for solubility with addition of 10% DMSO: 10% dimethylsulfoxide final concentration; for solubility in water: water / aqueous solution
From the text: It is still insufficient to resolve spectrophotometric characteristics with […] as evidenced by the low absorbance intensity and indistinct bands in both absorbance and fluorescence characteristics (FIGS. 1A and 1B). […] In FIGS. 2A-2D, the more traditional Soret and Q-bands in the absorbance spectra are evident, and the expected two peak fluorescence emission spectra are observed. […] Each of the constructs has unique peak positions as well as varying extinction coefficients for the Soret and Q-bands. Fluorescence emission is also uniquely varying amongst the tracers. These factors tend to indicate the formation of unique complexes providing the potential desired for these materials.

[3] = system: E. coli; assay: Microtiter plate absorbance/fluorescence analysis of interaction with bacterial cells (E. coli); type: cell-based
Description: as §1, §2

| Molecule | changes in fluorescence on interaction with cells ([1]; B. globigii cells) | changes in absorbance or fluorescence characteristics on interaction with cells ([1]; B. globigii cells, range of concentrations evaluated) | solubility with addition of 10% DMSO [2] | solubility in water [2] | changes in fluorescence on interaction with cells ([3]; E. coli cells) | changes in absorbance or fluorescence characteristics on interaction with cells ([3]; E. coli cells, range of concentrations evaluated) | peak/trough pair in the Soret region of the absorbance difference spectrum ([1]; in the presence of B. globigii cells) | peak/trough pair in the Soret region of the absorbance difference spectrum ([3]; in the presence of E. coli cells) |
| --- | --- | --- | --- | --- | --- | --- | --- | --- |
| O=C(O)c1ccc(-c2c3nc(c(-c4ccccc4)c4ccc([nH]4)c(-c4ccccc4)c4nc(c(-c5ccccc5)c5ccc2[nH]5)C=C4)C=C3)cc1 [C1TPP, 5-mono(4-carboxyphenyl)-10,15,20-triphenyl porphine] | overall quench | did not produce concentration dependent changes | increased somewhat | minimally soluble | overall quench | did not produce concentration dependent changes | – | – |
| C1-Bac: C1TPP covalently attached to Bactenecin (RLCRIVVIRVCR; cyclized via disulfide bridge) (disulfide 3-11 (inferred); also: C1TPP covalently attached, site not given here) | noted for only the highest concentrations of tracer used | – | sufficient to maintain the solubility | precipitated from aqueous solution | noted for only the highest concentrations of tracer used | – | 476/432 | 476/432 |

From patent US9581594B2, “Porphyrin—modified antimicrobial peptides for application as indicators of microbial targets” (priority 2013, dated 2017)
